Test results: ChEMBL document CHEMBL6083286, “Discovery of ERD-12310A as an Exceptionally Potent and Orally Efficacious PROTAC Degrader of Estrogen Receptor α (ERα)” (J Med Chem, 2024)
Activity calls are given as the source filed them. The calls are words filed in the database; no cut-off is given here.

Assays:
[1] = Drug concentration in female Sprague-Dawley rat plasma at 3 mg/kg, po measured at 1 hr by LC-MS analysis; assay type: ADME, organism-based
[2] = Drug concentration in female Sprague-Dawley rat plasma at 3 mg/kg, po measured at 24 hrs by LC-MS analysis; assay type: ADME, organism-based
[3] = molecular target: T1, Protein cereblon/Estrogen receptor (Homo sapiens, UniProt P03372+Q96SW2); experiment: PROTAC activity at CRBN/ERalpha in human MCF7 cells assessed as reduction in ERalpha protein level measured after 12 hrs by Western blot analysis relative to control; assay type: cell-based
Target sequence in this assay (P03372 whole entry, looked up): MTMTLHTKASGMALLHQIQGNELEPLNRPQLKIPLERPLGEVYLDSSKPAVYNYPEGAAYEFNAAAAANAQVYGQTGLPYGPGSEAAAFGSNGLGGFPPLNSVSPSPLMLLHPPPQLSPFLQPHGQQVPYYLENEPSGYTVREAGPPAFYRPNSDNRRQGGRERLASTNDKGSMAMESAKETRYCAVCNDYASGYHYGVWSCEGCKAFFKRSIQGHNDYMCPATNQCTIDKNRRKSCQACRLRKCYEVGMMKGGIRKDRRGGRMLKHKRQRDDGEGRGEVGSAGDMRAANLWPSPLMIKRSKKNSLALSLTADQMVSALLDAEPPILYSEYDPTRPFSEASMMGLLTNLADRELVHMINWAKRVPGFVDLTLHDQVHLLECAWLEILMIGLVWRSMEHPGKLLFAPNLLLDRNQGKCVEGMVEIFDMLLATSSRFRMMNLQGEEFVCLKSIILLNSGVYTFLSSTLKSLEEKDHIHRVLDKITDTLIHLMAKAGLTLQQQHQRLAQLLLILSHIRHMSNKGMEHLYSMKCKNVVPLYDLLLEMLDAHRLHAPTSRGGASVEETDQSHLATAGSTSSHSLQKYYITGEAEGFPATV
Target sequence in this assay (Q96SW2 whole entry, looked up): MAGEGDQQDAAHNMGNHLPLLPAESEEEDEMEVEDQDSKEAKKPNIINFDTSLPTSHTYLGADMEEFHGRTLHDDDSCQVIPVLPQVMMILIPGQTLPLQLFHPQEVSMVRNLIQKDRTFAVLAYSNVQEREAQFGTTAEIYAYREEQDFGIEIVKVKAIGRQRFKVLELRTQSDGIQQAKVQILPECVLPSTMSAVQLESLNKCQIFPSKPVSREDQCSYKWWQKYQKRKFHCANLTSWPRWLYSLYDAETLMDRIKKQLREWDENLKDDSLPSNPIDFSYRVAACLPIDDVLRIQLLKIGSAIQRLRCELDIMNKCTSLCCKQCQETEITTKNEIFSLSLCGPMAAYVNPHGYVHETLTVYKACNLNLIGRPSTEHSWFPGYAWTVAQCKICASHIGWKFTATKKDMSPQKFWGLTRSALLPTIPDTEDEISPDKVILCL

[4] = Drug concentration in female Sprague-Dawley rat plasma at 3 mg/kg, po measured at 6 hrs by LC-MS analysis; assay type: ADME, organism-based
[5] = Drug concentration in female Sprague-Dawley rat plasma at 3 mg/kg, po measured at 3 hrs by LC-MS analysis; assay type: ADME, organism-based
[6] = molecular target: T1, Protein cereblon/Estrogen receptor; experiment: PROTAC activity at CRBN/ERalpha in human MCF7 cells assessed as reduction in ERalpha protein level measured after 12 hrs by Western blot analysis; assay type: cell-based
Target sequence in this assay (P03372 whole entry): as the sequence (P03372 whole entry, looked up) above
Target sequence in this assay (Q96SW2 whole entry): as the sequence (Q96SW2 whole entry, looked up) above

[7] = Metabolic stability mouse liver microsome assessed as half life; assay type: ADME; details: microsomes
[8] = Metabolic stability rat liver microsome assessed as half life; assay type: ADME; details: microsomes
[9] = Metabolic stability human liver microsome assessed as half life; assay type: ADME; details: microsomes
[10] = molecular target: T1, Protein cereblon/Estrogen receptor; experiment: PROTAC activity at CRBN/ERalpha in human MCF7 cells assessed as effect on GSPT1 level at 100 nM measured for 5 hrs by Western blot analysis; assay type: cell-based
Target sequence in this assay (P03372 whole entry, looked up): as the sequence (P03372 whole entry, looked up) above
Target sequence in this assay (Q96SW2 whole entry, looked up): as the sequence (Q96SW2 whole entry, looked up) above

[11] = Stability in mouse plasma assessed as half life; assay type: ADME, cell-free
Protein cereblon = Protein cereblon (Homo sapiens, UniProt Q96SW2); experiment: Binding affinity to wild type GST-tagged human CRBN by HTRF assay
[12] = Stability in human plasma assessed as half life; assay type: ADME, cell-free
[13] = Stability in rat plasma assessed as half life; assay type: ADME, cell-free
T47D [14] = experiment: PROTAC activity at CRBN/ ERalpha D538G mutant in human T47D cells assessed as reduction in ERalpha protein level at 10 to 100 nM measured at 7 hrs by Western blot analysis; assay type: cell-based; details: dose 10-100 nM
[15] = molecular target: T1, Protein cereblon/Estrogen receptor; experiment: PROTAC activity at CRBN/wild type ERalpha in human T47D cells assessed as reduction in ERalpha protein level at 10 to 100 nM measured at 7 hrs by Western blot analysis; assay type: cell-based; details: dose 10-100 nM
Target sequence in this assay (P03372 whole entry, looked up): as the sequence (P03372 whole entry, looked up) above
Target sequence in this assay (Q96SW2 whole entry, looked up): as the sequence (Q96SW2 whole entry, looked up) above

T47D [16] = experiment: PROTAC activity at CRBN/ ERalpha Y537S mutant in human T47D cells assessed as reduction in ERalpha protein level at 10 to 100 nM measured at 7 hrs by Western blot analysis; assay type: cell-based; details: dose 10-100 nM
MCF7 = experiment: Antiproliferative activity against human MCF7 cells assessed as cell growth inhibition incubated for 4 days by crystal violet staining based assay; assay type: functional; details: time 4.0 day

Protein cereblon, sequence (Q96SW2 whole entry): as the sequence (Q96SW2 whole entry, looked up) above

## O=C1CC[C@H](N2Cc3c(ccc4c3OCC43CCN(C(=O)CN4CCC5(CC4)CN(c4ccc([C@@H]6c7ccc(O)cc7CC[C@@H]6c6ccccc6)cc4)C5)CC3)C2=O)C(=O)N1
[1]
  concentration at 1 h: 16 ng/mL
[2]
  concentration at 24 h: < 5 ng/mL
[3]
  Emax: 96%
[4]
  concentration at 6 h: 9 ng/mL
[5]
  concentration at 3 h: 13 ng/mL
[6]
  DC50: 0.034 nM

## O=C1CC[C@H](N2Cc3c(ccc4c3OCC43CCN(CC(=O)N4CCC5(CC4)CN(c4ccc([C@@H]6c7ccc(O)cc7CC[C@@H]6c6ccccc6)cc4)C5)CC3)C2=O)C(=O)N1
[1]
  concentration at 1 h: 32 ng/mL
[2]
  concentration at 24 h: < 5 ng/mL
[3]
  Emax: 102%
[4]
  concentration at 6 h: 17 ng/mL
[5]
  concentration at 3 h: 26 ng/mL
[6]
  DC50: 0.253 nM

## O=C1CC[C@H](N2Cc3c(ccc4c3OCC43CCN(CC(=O)N4CC5(CCN(c6ccc([C@@H]7c8ccc(O)cc8CC[C@@H]7c7ccccc7)cc6)CC5)C4)CC3)C2=O)C(=O)N1
[1]
  concentration at 1 h: 9 ng/mL
[7]
  t1/2: 0.583 h
[8]
  t1/2: 0.817 h
[2]
  concentration at 24 h: < 5 ng/mL
[9]
  t1/2: > 1 h
[3]
  Emax: 102%
[4]
  concentration at 6 h: < 5 ng/mL
[5]
  concentration at 3 h: < 5 ng/mL
[6]
  DC50: 0.0341 nM

## O=C1CCC(N2Cc3c(CCCCCNC(=O)[C@@H]4NC5(CCCCC5)[C@@]5(C(=O)Nc6cc(Cl)ccc65)[C@H]4c4cccc(Cl)c4F)cccc3C2=O)C(=O)N1 (some centres not stated)
[10]
  Activity: Active

## O=C1CC[C@H](N2Cc3c(ccc4c3OCC43CCNCC3)C2=O)C(=O)N1
[11]
  t1/2: > 1 h
[7]
  t1/2: > 1 h
Protein cereblon
  IC50: 230 nM
[8]
  t1/2: > 1 h
[12]
  t1/2: > 1 h
[13]
  t1/2: > 1 h

## CN(C)C[C@@H]1CCC2(CCN(c3ccc([C@@H]4c5ccc(O)cc5CC[C@@H]4c4ccccc4)cc3)CC2)OC1
T47D [14]
  Activity: inactive
[15]
  Activity: inactive
T47D [16]
  Activity: inactive
MCF7
  Activity: Active

## CN1C(=O)CC[C@H](N2Cc3c(ccc4c3OCC43CCN(C[C@@H]4CCC5(CCN(c6ccc([C@@H]7c8ccc(O)cc8CC[C@@H]7c7ccccc7)cc6)CC5)OC4)CC3)C2=O)C1=O
T47D [14]
  Activity: inactive
Protein cereblon
  Activity: inactive
[15]
  Activity: inactive
T47D [16]
  Activity: inactive
MCF7
  Activity: Active
